From patent publication US5834453A, “Methods for the manufacture and use of antimicrobial sterol conjugates” (Lehigh University, priority 1997, dated 1998)
Converted amounts (≈) assume the structure as drawn.

Legend:
A. fumigatus (H1120) = experiment: MIC, micro-broth dilution; type: cell-based; settings: Aspergillus fumigatus, 35° C., 24 hours, read-out: ANTIMICROBIAL ACTIVITY (MIC)
Protocol: (§1) The antimicrobial activity of the compounds according to the present invention were compared with the results obtained for squalamine as reported in Proc. Nat. Acad. Sci. USA 90:1354 (1993), supra, the disclosure of which is incorporated in toto herein. The data reported in the following table is the minimum inhibitory concentration (MIC) required for complete inhibition of microbial growth. The MIC was determined utilizing known micro-broth dilution methods in which inocula of 10^6 /ml of the test organism were incubated in 0.5× trypticase soy broth at 35° C. for 24 hours. MIC's were also tested under various pH conditions, with calcium chloride or magnesium chloride, or with immobilized horse serum.
(§2) The numbers in parentheses contained in the table correspond to accession numbers with the American Type Culture Collection (reference strains were either obtained from the American Type Culture Collection or from the Microbiology Laboratory at Memorial Sloan-Kettering Cancer Center; Bacterial strains were maintained on Columbia 5% sheep blood agar plates, and fungi were maintained on Sabouraud Dextrose agar plates).

A. fumigatus (H29709) = experiment: MIC, micro-broth dilution; type: cell-based; settings: Aspergillus fumigatus, 35° C., 24 hours, read-out: ANTIMICROBIAL ACTIVITY (MIC)
Protocol: as §1, §2

C. albicans (90028) = experiment: MIC, micro-broth dilution; type: cell-based; settings: Candida albicans, 35° C., 24 hours, read-out: ANTIMICROBIAL ACTIVITY (MIC)
Protocol: as §1, §2

C. neoformans (90012) = experiment: MIC, micro-broth dilution; type: cell-based; settings: Cryptococcus neoformans, 24 h, read-out: ANTIMICROBIAL ACTIVITY (MIC)
Protocol: as §1, §2

C. neoformans (M68979) = experiment: MIC, micro-broth dilution; type: cell-based; settings: Cryptococcus neoformans, 24 h, read-out: ANTIMICROBIAL ACTIVITY (MIC)
Protocol: as §1, §2

E. cloacae (13047) = experiment: MIC, micro-broth dilution; type: cell-based; settings: Enterobacter cloacae, 35° C., 24 hours, read-out: ANTIMICROBIAL ACTIVITY (MIC)
Protocol: as §1, §2

E. coli (25922) = experiment: MIC, micro-broth dilution; type: cell-based; settings: Escherichia coli, 35° C., 24 hours, read-out: ANTIMICROBIAL ACTIVITY (MIC)
Protocol: as §1, §2

E. faecalis (29212) = experiment: MIC, micro-broth dilution; type: cell-based; settings: Enterococcus faecalis, 35° C., 24 hours, read-out: ANTIMICROBIAL ACTIVITY (MIC)
Protocol: as §1, §2

E. faecium (T6480-9) = experiment: MIC, micro-broth dilution; type: cell-based; settings: Enterococcus faecium, 35° C., 24 hours, read-out: ANTIMICROBIAL ACTIVITY (MIC)
Protocol: as §1, §2

K. pneumoniae (13883) = experiment: MIC, micro-broth dilution; type: cell-based; settings: Klebsiella pneumoniae, 24 h, read-out: ANTIMICROBIAL ACTIVITY (MIC)
Protocol: as §1, §2

P. aeruginosa (10145) = experiment: MIC, micro-broth dilution; type: cell-based; settings: Pseudomonas aeruginosa, 35° C., 24 hours, read-out: ANTIMICROBIAL ACTIVITY (MIC)
Protocol: as §1, §2

P. aeruginosa (2853) = experiment: MIC, micro-broth dilution; type: cell-based; settings: Pseudomonas aeruginosa, 24 h, read-out: ANTIMICROBIAL ACTIVITY (MIC)
Protocol: as §1, §2

P. vulgaris (13315) = experiment: MIC, micro-broth dilution; type: cell-based; settings: Proteus vulgaris, 35° C., 24 hours, read-out: ANTIMICROBIAL ACTIVITY (MIC)
Protocol: as §1, §2

S. agalactiae (13813) = experiment: MIC, micro-broth dilution; type: cell-based; settings: Streptococcus agalactiae, 35° C., 24 hours, read-out: ANTIMICROBIAL ACTIVITY (MIC)
Protocol: as §1, §2

S. aureus (25923) = experiment: MIC, micro-broth dilution; type: cell-based; settings: Staphylococcus aureus, 35° C., 24 hours, read-out: ANTIMICROBIAL ACTIVITY (MIC)
Protocol: as §1, §2

S. aureus (29213) = experiment: MIC, micro-broth dilution; type: cell-based; settings: Staphylococcus aureus, 24 h, read-out: ANTIMICROBIAL ACTIVITY (MIC)
Protocol: as §1, §2

S. aureus (H20809) = experiment: MIC, micro-broth dilution; type: cell-based; settings: Staphylococcus aureus, 24 h, read-out: ANTIMICROBIAL ACTIVITY (MIC)
Protocol: as §1, §2

S. epidermidis (12228) = experiment: MIC, micro-broth dilution; type: cell-based; settings: Staphylococcus epidermidis, 35° C., 24 hours, read-out: ANTIMICROBIAL ACTIVITY (MIC)
Protocol: as §1, §2

S. marcescens (13880) = experiment: MIC, micro-broth dilution; type: cell-based; settings: Serratia marcescens, 24 h, read-out: ANTIMICROBIAL ACTIVITY (MIC)
Protocol: as §1, §2

S. pneumoniae (6305) = experiment: MIC, micro-broth dilution; type: cell-based; settings: Streptococcus pneumoniae, 35° C., 24 hours, read-out: ANTIMICROBIAL ACTIVITY (MIC)
Protocol: as §1, §2

S. pyrogenes (19615) = experiment: MIC, micro-broth dilution; type: cell-based; settings: 24 h, read-out: ANTIMICROBIAL ACTIVITY (MIC)
Protocol: as §1, §2

[1] = Hemolytic activity, minimal hemolytic concentration (MHC); type: cell-based, sheep; settings: sheep, red blood cells;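 further: MCC here is the minimal hemolytic concentration (MHC)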
Protocol: Hemolytic activity of the squalamine mimics according to the present invention were also studied by incubating sheep red blood cells for 24 hours at 37° C. in saline (final concentration of 0.5%) with or without respective concentrations of the squalamine mimics. The minimal hemolytic concentration (MHC) was determined as the lowest concentration of a mimic that raised visible hemolysis.

Structure (SMILES)	MIC (A. fumigatus (H1120)) [µg/mL]	MIC (A. fumigatus (H29709)) [µg/mL]	MIC (C. albicans (90028)) [µg/mL]	MIC (C. neoformans (90012)) [µg/mL]	MIC (C. neoformans (M68979)) [µg/mL]	MIC (E. cloacae (13047)) [µg/mL]	MIC (E. coli (25922)) [µg/mL]	MIC (E. faecalis (29212)) [µg/mL]	MIC (E. faecium (T6480-9)) [µg/mL]	MIC (K. pneumoniae (13883)) [µg/mL]	MIC (P. aeruginosa (10145)) [µg/mL]	MIC (P. aeruginosa (2853)) [µg/mL]	MIC (P. vulgaris (13315)) [µg/mL]	MIC (S. agalactiae (13813)) [µg/mL]	MIC (S. aureus (25923)) [µg/mL]	MIC (S. aureus (29213)) [µg/mL]	MIC (S. aureus (H20809)) [µg/mL]	MIC (S. epidermidis (12228)) [µg/mL]	MIC (S. marcescens (13880)) [µg/mL]	MIC (S. pneumoniae (6305)) [µg/mL]	further results
C[C@H](CCC(=O)NCCNCCNCCN)[C@H]1CC[C@H]2[C@@H]3[C@H](O)C[C@@H]4C[C@H](O)CC[C@]4(C)[C@H]3C[C@H](O)[C@]12C [SM-17]	25 (≈ 46.6 µM)	25 (≈ 46.6 µM)	25 (≈ 46.6 µM)	12.5 (≈ 23.3 µM)	12.5 (≈ 23.3 µM)	50 (≈ 93.1 µM)	50 (≈ 93.1 µM)	50 (≈ 93.1 µM)	50 (≈ 93.1 µM)	50 (≈ 93.1 µM)	100 (≈ 186 µM)	50 (≈ 93.1 µM)	50 (≈ 93.1 µM)	12.5 (≈ 23.3 µM)	25 (≈ 46.6 µM)	25 (≈ 46.6 µM)	50 (≈ 93.1 µM)	25 (≈ 46.6 µM)	> 100	25 (≈ 46.6 µM)	MIC (S. pyrogenes (19615)): 12.5 µg/mL (≈ 23.3 µM); MCC at 24 h [1]: > 100 µg/mL
C[C@H](CCC(=O)NCCNCCNCCN)[C@H]1CC[C@H]2[C@@H]3CC[C@@H]4CCCC[C@]4(C)[C@H]3CC[C@]12C [SM-21]	6.25 (≈ 12.8 µM)	3.13 (≈ 6.4 µM)	6.25 (≈ 12.8 µM)	1.56 (≈ 3.19 µM)	1.56 (≈ 3.19 µM)	> 100	50 (≈ 102 µM)	3.13 (≈ 6.4 µM)	1.56 (≈ 3.19 µM)	> 100	25 (≈ 51.1 µM)	25 (≈ 51.1 µM)	50 (≈ 102 µM)	1.56 (≈ 3.19 µM)	3.13 (≈ 6.4 µM)	3.13 (≈ 6.4 µM)	3.13 (≈ 6.4 µM)	1.56 (≈ 3.19 µM)	> 100	1.56 (≈ 3.19 µM)	MIC (S. pyrogenes (19615)): 3.13 µg/mL (≈ 6.4 µM); MCC at 24 h [1]: 3.13 µg/mL
C[C@H](CCC(=O)NCCCNCCCCNCCCN)[C@H]1CC[C@H]2[C@@H]3CC[C@@H]4C[C@H](OS(=O)(=O)O)CC[C@]4(C)[C@H]3CC[C@]12C [SM-22]	> 100	> 100	> 100	25 (≈ 39 µM)	25 (≈ 39 µM)	> 100	> 100	> 100	> 100	> 100	> 100	> 100	> 100	> 100	1.56 (≈ 2.43 µM)	1.56 (≈ 2.43 µM)	3.13 (≈ 4.88 µM)	1.56 (≈ 2.43 µM)	> 100	25 (≈ 39 µM)	MIC (S. pyrogenes (19615)): 1.56 µg/mL (≈ 2.43 µM); MCC at 24 h [1]: > 100 µg/mL
